Tests used:
PPARδ-RXRα heterodimer = target: T1, PPARδ-RXRα heterodimer (Homo sapiens, UniProt Q03181); assay: PPARδ-RXRα heterodimer ligand activity (luciferase reporter, PPARδ:RXRα:4ERPP/CHO-K1 cells); format: cell-based; parameters: expressed in transfected cells; conditions: concentration for 50% of maximum fold induction of luciferase, 48 hrs
T1 sequence (Q03181 1-441): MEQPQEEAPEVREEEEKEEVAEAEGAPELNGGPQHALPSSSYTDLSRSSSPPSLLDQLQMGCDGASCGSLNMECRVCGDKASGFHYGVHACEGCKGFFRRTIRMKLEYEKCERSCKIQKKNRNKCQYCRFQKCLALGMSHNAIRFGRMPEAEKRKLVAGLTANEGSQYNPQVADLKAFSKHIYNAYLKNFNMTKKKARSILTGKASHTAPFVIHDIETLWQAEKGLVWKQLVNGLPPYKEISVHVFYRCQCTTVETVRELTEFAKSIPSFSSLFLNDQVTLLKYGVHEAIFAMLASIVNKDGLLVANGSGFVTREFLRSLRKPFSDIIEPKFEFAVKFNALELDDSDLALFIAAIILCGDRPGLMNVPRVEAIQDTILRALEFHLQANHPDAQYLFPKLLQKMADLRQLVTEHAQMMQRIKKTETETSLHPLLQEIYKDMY
T1 sequence (P19793 1-462 partner): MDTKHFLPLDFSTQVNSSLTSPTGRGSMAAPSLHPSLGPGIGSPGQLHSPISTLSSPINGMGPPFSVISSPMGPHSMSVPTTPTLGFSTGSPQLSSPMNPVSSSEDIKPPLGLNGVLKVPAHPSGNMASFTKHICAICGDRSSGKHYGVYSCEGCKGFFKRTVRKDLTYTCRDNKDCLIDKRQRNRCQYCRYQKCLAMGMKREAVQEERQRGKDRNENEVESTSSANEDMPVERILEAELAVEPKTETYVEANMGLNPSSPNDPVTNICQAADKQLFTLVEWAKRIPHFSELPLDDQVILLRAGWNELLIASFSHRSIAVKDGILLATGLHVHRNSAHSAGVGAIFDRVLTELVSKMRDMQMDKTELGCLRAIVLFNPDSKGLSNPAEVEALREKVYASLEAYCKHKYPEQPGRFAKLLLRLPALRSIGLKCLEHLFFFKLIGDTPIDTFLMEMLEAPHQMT
Procedure: PPARδ-RXRα Heterodimer Ligand Activity
PPARδ:RXRα:4ERPP/CHO-K1 cells obtained in Reference Example 5a were cultured in HAM F12 medium (produced by NISSUI SEIYAKU) containing 10% fetal bovine serum (produced by Life Technologies, Inc., USA) and then seeded in a 96-well white plate (produced by Corning Costar Corporation, USA) at the density of 2×10^4 cells/well, and cultured in a CO2 gas incubator at 37° C. overnight.
After washing the 96 well white plate with PBS (Phosphate-buffered saline), 90 μl of HAM F12 medium containing 0.1% fatty acid-free bovine serum albumin (BSA) and 10 μl of test compound were added, and the cells were cultured in a CO2 gas incubator at 37° C. for 48 hrs. After removing the medium, 40 μl of PicaGene 7.5 (produced by Wako Pure Chemical Industries, Ltd.) was added. After stirring, the luciferase activity was determined using Lumistar (produced by BMG Labtechnologies GmbH, Germany).
The fold induction was calculated from the luciferase activity of each test compound when the luciferase activity in the non-treatment group is taken as 1. The values of the test compound concentration and the fold induction were analyzed using PRISM 2.01 (produced by GraphPad Software Inc. USA) to calculate the EC50 values, the effective concentration of a test compound for 50% of the maximum fold induction. […]

melting point: 136 to 137 °C
EC50 (PPARδ-RXRα heterodimer): 2100 nM
Compound: Cc1oc(-c2ccccc2)nc1COc1ccc(Sc2nc(-c3ccccc3)c(CCC(=O)O)o2)cc1 [Example 10, 3-[2-[4-(5-methyl-2-phenyl-4-oxazolylmethoxy)phenylthio]-4-phenyl-5-oxazolyl]propionic acid]

From patent publication US7241785B2, “Five-membered heterocyclic alkanoic acid derivative” (Takeda Pharmaceutical Company Limited, priority 2001, dated 2007)
